Values after ≈ are worked out from the molar mass of the structure shown.

Holding throughout (test): Antifungal activity, standard agar dilution streak method
What all share (type): cell-based

In one test the test system is Candida albicans 3147. As to conditions: read-out: Minimum inhibitory concentration. How it is done:
(§1) The antifungal activity of the compound of the present invention was assayed by the standard agar dilution streak method against fungi.

Test [1] has as its system Candida albicans IFO-1388. The settings on record: IFO1388, read-out: Minimum inhibitory concentration. How it is done:
as §1

Test [2] concerns Candida albicans IFO-1594. As to conditions: IFO1594, read-out: Minimum inhibitory concentration. The protocol: as §1
The next test relates to Candida albicans KYF-602. The settings on record: KYF602, read-out: Minimum inhibitory concentration. The protocol:
as §1

Test [3] concerns Candida albicans MTU-12124. As to conditions: MTU12124, read-out: Minimum inhibitory concentration. How it is done:
as §1

In test [4] the test system is Candida stellatidea IFO-1398. The settings on record: IFO1398, read-out: Minimum inhibitory concentration. How it is done:
as §1

Test [5] deals with Trichophyton mentagrophytes MTU-19003. As to conditions: MTU19003, read-out: Minimum inhibitory concentration. How it is done:
as §1

Test [6] has as its system Trichophyton mentagrophytes MTU-19005. The settings on record: MTU19005, read-out: Minimum inhibitory concentration. How it is done:
as §1

Test [7] deals with Aspergillus fumigatus MTU-06002. The settings on record: MTU06002, read-out: Minimum inhibitory concentration. How it is done:
as §1

In another test the test system is Microsporum canis 200100. As to conditions: read-out: Minimum inhibitory concentration. The protocol:
as §1

In the case of `Clc1cc(Cl)n2c(C3CCCCC3)nc(Cl)c2n1` [compound 19], the MIC came out at 0.78 µg/mL (≈ 2.56 µM) in the test on Candida albicans 3147; 0.2 µg/mL (≈ 0.657 µM) in [1]; 1.56 µg/mL (≈ 5.12 µM) in test [2]; 1.56 µg/mL (≈ 5.12 µM) with Candida albicans KYF-602; 1.56 µg/mL (≈ 5.12 µM) in [3]; 1.56 µg/mL (≈ 5.12 µM) in test [4]. The MIC stood at 3.13 µg/mL (≈ 10.3 µM) in [5] and 1.56 µg/mL (≈ 5.12 µM) in [6].
On to `Clc1cc(Cl)n2c(Cc3cccs3)ncc2n1` [Exp. 4], for which the MIC in test [7] was 12.5 µg/mL (≈ 44 µM); in the test with Candida albicans 3147, 3.13 µg/mL (≈ 11 µM); in [1] it was 6.25 µg/mL (≈ 22 µM); in test [2], 3.13 µg/mL (≈ 11 µM); in the test with Candida albicans KYF-602 it was 6.25 µg/mL (≈ 22 µM); in test [3], 6.25 µg/mL (≈ 22 µM). Besides, the MIC turned out to be 3.13 µg/mL (≈ 11 µM) in [4], 1.56 µg/mL (≈ 5.49 µM) with Microsporum canis 200100, 1.56 µg/mL (≈ 5.49 µM) in test [5] and 1.56 µg/mL (≈ 5.49 µM) in test [6].
For the molecule `Clc1cc(Cl)n2c(-c3ccc(Cl)s3)ncc2n1` [Exp. 7], the MIC is 0.2 µg/mL (≈ 0.657 µM) in the test with Candida albicans 3147; 0.78 µg/mL (≈ 2.56 µM) in test [1]; 0.2 µg/mL (≈ 0.657 µM) in test [2]; 0.39 µg/mL (≈ 1.28 µM) in the test with Candida albicans KYF-602; 1.56 µg/mL (≈ 5.12 µM) in [3]; 0.78 µg/mL (≈ 2.56 µM) in [4]. Also, the MIC in test [5] and in test [6] was 0.78 µg/mL (≈ 2.56 µM) each time.
Turning to `Clc1cc(Cl)n2c(-c3ccccc3)nc(Cl)c2n1` [Exp. 13, 2,4,8-trichloro-6-phenylimidazo[1,5-a]pyrimidine], the MIC in [7] was 6.25 µg/mL (≈ 20.9 µM); in the test on Candida albicans 3147, 3.13 µg/mL (≈ 10.5 µM); in test [1] it was 3.13 µg/mL (≈ 10.5 µM); in test [2], 3.13 µg/mL (≈ 10.5 µM); in the test on Candida albicans KYF-602, 3.13 µg/mL (≈ 10.5 µM); in [3], 12.5 µg/mL (≈ 41.9 µM). The MIC in test [4] is 6.25 µg/mL (≈ 20.9 µM); with Microsporum canis 200100, 0.78 µg/mL (≈ 2.61 µM); in [5] it was 0.78 µg/mL (≈ 2.61 µM); in [6], 0.78 µg/mL (≈ 2.61 µM).
Take `Clc1ccc(Cc2nc(Cl)c3nc(Cl)cc(Cl)n23)cc1` [compound 18]: the MIC in the test on Candida albicans 3147 was 1.56 µg/mL (≈ 4.5 µM); in test [1], 0.2 µg/mL (≈ 0.576 µM); in [2] it was 3.13 µg/mL (≈ 9.02 µM); with Candida albicans KYF-602 it was 25 µg/mL (≈ 72 µM); in test [3], 6.25 µg/mL (≈ 18 µM); in [4], 0.78 µg/mL (≈ 2.25 µM). Besides, the MIC in [5] turned out to be 3.13 µg/mL (≈ 9.02 µM); in test [6], 1.56 µg/mL (≈ 4.5 µM).
`Clc1cc(Cl)n2c(-c3cccs3)ncc2n1` [Exp. 1, 2,4-dichloro-6-(2-thienyl)imidazo[1,5-a]pyrimidine]: the MIC in test [7] came out at 6.25 µg/mL (≈ 23.1 µM); with Candida albicans 3147 it was 3.13 µg/mL (≈ 11.6 µM); in test [1], 1.56 µg/mL (≈ 5.77 µM); in test [2], 1.56 µg/mL (≈ 5.77 µM); in the test with Candida albicans KYF-602, 6.25 µg/mL (≈ 23.1 µM); in test [3] it was 6.25 µg/mL (≈ 23.1 µM). The MIC (in test [4]; in the test on Microsporum canis 200100; in test [5]; in test [6]) was 1.56 µg/mL (≈ 5.77 µM) in each case.
With `Cc1ccc(-c2ncc3nc(Cl)cc(Cl)n23)s1` [Exp. 8], the MIC in the test on Candida albicans 3147 is 1.56 µg/mL (≈ 5.49 µM); in test [1], 6.25 µg/mL (≈ 22 µM); in test [2], 6.25 µg/mL (≈ 22 µM); in the test with Candida albicans KYF-602, 6.25 µg/mL (≈ 22 µM); in test [3] it was 3.13 µg/mL (≈ 11 µM); in [4] it was 1.56 µg/mL (≈ 5.49 µM). For the same molecule, the MIC in test [5] and in [6] was 1.56 µg/mL (≈ 5.49 µM) each time.
For the molecule `Clc1cc(Cl)n2c(-c3ccc(Br)s3)ncc2n1` [Exp. 6], the MIC in test [7] is 3.13 µg/mL (≈ 8.97 µM); with Candida albicans 3147 it was 0.78 µg/mL (≈ 2.23 µM); in test [1], 0.78 µg/mL (≈ 2.23 µM); in test [2], 3.13 µg/mL (≈ 8.97 µM); with Candida albicans KYF-602 it was 3.13 µg/mL (≈ 8.97 µM); in test [3], 0.78 µg/mL (≈ 2.23 µM). For the same molecule, the MIC is 0.78 µg/mL (≈ 2.23 µM) in [4], 0.78 µg/mL (≈ 2.23 µM) in the test on Microsporum canis 200100, 1.56 µg/mL (≈ 4.47 µM) in test [5] and 0.78 µg/mL (≈ 2.23 µM) in test [6].
For the molecule `Clc1cc(Cl)n2c(-c3ccc(Br)cc3)nc(Cl)c2n1` [Exp. 17], the MIC with Candida albicans 3147 is 1.56 µg/mL (≈ 4.13 µM); in test [1] it was 0.78 µg/mL (≈ 2.07 µM); in test [2] it was 1.56 µg/mL (≈ 4.13 µM); in the test with Candida albicans KYF-602, 6.25 µg/mL (≈ 16.6 µM); in test [3], 3.13 µg/mL (≈ 8.29 µM); in test [4], 0.39 µg/mL (≈ 1.03 µM). In addition, the MIC in test [5] and in [6] was 3.13 µg/mL (≈ 8.29 µM) each time.
Take `Clc1cc(Cl)n2c(-c3ccco3)ncc2n1` [Exp. 3]: the MIC in test [7] is 12.5 µg/mL (≈ 49.2 µM); with Candida albicans 3147, 3.13 µg/mL (≈ 12.3 µM); in test [1] it was 3.13 µg/mL (≈ 12.3 µM); in test [2] it was 3.13 µg/mL (≈ 12.3 µM); with Candida albicans KYF-602 it was 12.5 µg/mL (≈ 49.2 µM); in test [3] it was 6.25 µg/mL (≈ 24.6 µM). Further, the MIC was found to be 3.13 µg/mL (≈ 12.3 µM) in test [4], 1.56 µg/mL (≈ 6.14 µM) in the test with Microsporum canis 200100, 3.13 µg/mL (≈ 12.3 µM) in [5] and 3.13 µg/mL (≈ 12.3 µM) in test [6].
Turning to `Clc1cc(Cl)n2c(-c3ccsc3)ncc2n1` [Exp. 5], the MIC came to 3.13 µg/mL (≈ 11.6 µM) in test [7]; 3.13 µg/mL (≈ 11.6 µM) with Candida albicans 3147; 6.25 µg/mL (≈ 23.1 µM) in test [1]; 3.13 µg/mL (≈ 11.6 µM) in test [2]; 12.5 µg/mL (≈ 46.3 µM) in the test with Candida albicans KYF-602; 6.25 µg/mL (≈ 23.1 µM) in test [3]. Besides, the MIC in test [4] came out at 6.25 µg/mL (≈ 23.1 µM); in the test on Microsporum canis 200100 it was 1.56 µg/mL (≈ 5.77 µM); in test [5], 1.56 µg/mL (≈ 5.77 µM); in test [6], 0.78 µg/mL (≈ 2.89 µM).
